Data on 15 compounds can be found in ChEMBL document CHEMBL3259577, “Antagonists of the kappa opioid receptor” (Bioorg Med Chem Lett, 2014).

For series [1], the species on record is Cavia porcellus. The series is described as follows: (§1) Antagonist activity at delta opioid receptor in guinea pig caudate assessed as inhibition of SNC-80-stimulated [35S]-GTP[gammaS] binding. In general terms: GTPγS is a poorly hydrolysed GTP analogue; its binding reports G protein activation.
In series [2] the target is T1, Mu-type opioid receptor (Homo sapiens, UniProt P35372). As to the kind of experiment: Antagonist activity at human cloned mu opioid receptor expressed in CHO cells assessed as inhibition of DAMGO-stimulated [35S]-GTP[gammaS] binding. Type of series: cell-based.
Series [3] deals with T2, Kappa-type opioid receptor (Homo sapiens, UniProt P41145). As to the kind of experiment: Antagonist activity at human cloned kappa opioid receptor expressed in CHO cells assessed as inhibition of Dynorphin A-stimulated [35S]-GTP[gammaS] binding. Type of series: functional, cell-based.
The species named for series [4] is Mus musculus. The series is described as follows: Antinociceptive activity in mouse assessed as reversal of U50488-induced withdrawl latencies. Type of series: functional.
For series [5], the target named is T1, Mu-type opioid receptor. As to the kind of experiment: Inhibition of mu opioid receptor (unknown origin) using DAMGO by high content imaging beta-arrestin translocation assay.
The target of series [6] is T2, Kappa-type opioid receptor. As to the kind of experiment: Inhibition of kappa opioid receptor (unknown origin) using dynorphin A by DiscoveryRx b-arrestin PathHunter assay.
Series [7] concerns the target T3, Delta-type opioid receptor (Homo sapiens, UniProt P41143). The series is described as follows: Inhibition of delta opioid receptor (unknown origin) using SNC-80 by high content imaging beta-arrestin translocation assay.
Series [8] has as its target T2, Kappa-type opioid receptor. As to the kind of experiment: Displacement of [3H]diprenorphine from kappa opioid receptor (unknown origin) expressed in CHO cells membranes. The format is cell membranes. A general note: Loss of bound radioactivity is the signal in a displacement assay; it reports binding, not function.
Series [9] deals with T1, Mu-type opioid receptor. As to the kind of experiment: Displacement of [3H]diprenorphine from mu opioid receptor (unknown origin) expressed in CHO cells membranes. The format is cell membranes.
Series [10] deals with T3, Delta-type opioid receptor. As to the kind of experiment: Displacement of [3H]diprenorphine from delta opioid receptor (unknown origin) expressed in CHO cells membranes. Type of series: cell membranes.
In series [11] the target is Kappa-type opioid receptor (Cavia porcellus, UniProt P41144). The series is described as follows: Antagonist activity at kappa opioid receptor in guinea pig ileum assessed as inhibition of U50488-stimulated [35S]-GTP[gammaS] binding. Conditions: read-out: pA2 (converted). The format is functional, tissue-based.
Series [12] deals with T4, Mu-type opioid receptor (Cavia porcellus, UniProt P97266). The series is described as follows: Antagonist activity at mu opioid receptor in guinea pig ileum assessed as inhibition of DAMGO-stimulated [35S]-GTP[gammaS] binding. Type of series: functional, tissue-based. Conditions: read-out: pA2 (converted).
Series [13] in a line: AUC in rat at 1 mg/kg, iv. The format is ADME, organism-based. On the set-up: dose 1 mg/kg, route intravenous. Conditions: plasma.
Series [14] can be described thus: Cmax in rat at 1 mg/kg, iv. The note with it: in vivo. The format is ADME, organism-based. On the set-up: dose 1 mg/kg, route intravenous.
A short description of series [15]: Tmax in rat at 1 mg/kg, iv. The format is ADME, organism-based. The arrangement: dose 1 mg/kg, route intravenous. Conditions: in vivo.
Series [16] is described as follows: Half life in rat at 1 mg/kg, iv. The note with it: in vivo. On the set-up: dose 1 mg/kg, route intravenous. The format is ADME, organism-based.
The nature of series [17]: Clearance in rat at 1 mg/kg, iv. Type of series: ADME, organism-based. On the set-up: dose 1 mg/kg, route intravenous. The note with it: in vivo.
Series [18] is described as follows: AUC in rat at 10 mg/kg, po. On the set-up: dose 10 mg/kg, route oral. The format is ADME, organism-based. The note with it: plasma.
Series [19] in a line: Cmax in rat at 10 mg/kg, po. Type of series: ADME, organism-based. The arrangement: dose 10 mg/kg, route oral. Conditions: in vivo.
Series [20] is described as follows: Tmax in rat at 10 mg/kg, po. The arrangement: dose 10 mg/kg, route oral. Conditions: in vivo. The format is ADME, organism-based.
Series [21] can be described thus: Half life in rat at 10 mg/kg, po. The arrangement: dose 10 mg/kg, route oral. The format is ADME, organism-based. The note with it: in vivo.
Series [22] in a line: Oral bioavailability in rat at 10 mg/kg. Type of series: ADME, organism-based. Conditions: in vivo.
For series [23], the system named is Rattus norvegicus. As to the kind of experiment: Analgesic activity in po dosed rat assessed as inhibition of formalin response. Type of series: functional.
The species entered for series [24] is Homo sapiens. As to the kind of experiment: Selectivity ratio for OPRK (unknown origin) to OPRM (unknown origin).
Series [25] concerns the target T1, Mu-type opioid receptor. The series is described as follows: Agonist activity at human cloned mu opioid receptor expressed in CHO cells assessed as stimulation of [35S]-GTP[gammaS] binding. The format is cell-based.
For series [26], the target named is T2, Kappa-type opioid receptor. As to the kind of experiment: Inhibition of kappa opioid receptor (unknown origin) using dynorphin A by high content imaging beta-arrestin translocation assay.
Series [27] deals with T4, Mu-type opioid receptor. The series is described as follows: Antagonist activity at mu opioid receptor in guinea pig caudate assessed as inhibition of DAMGO-stimulated [35S]-GTP[gammaS] binding. The format is functional.
Series [28] can be described thus: as §1. The arrangement: species or system Cavia porcellus.
Series [29] has as its target T2, Kappa-type opioid receptor. The series is described as follows: Antagonist activity at human cloned kappa opioid receptor expressed in CHO cells assessed as inhibition of U50488-stimulated [35S]-GTP[gammaS] binding. Type of series: functional, cell-based.
For series [30], the target named is T2, Kappa-type opioid receptor. As to the kind of experiment: Agonist activity at human cloned kappa opioid receptor expressed in CHO cells assessed as stimulation of [35S]-GTP[gammaS] binding. Type of series: functional, cell-based.
Series [31] addresses T3, Delta-type opioid receptor. As to the kind of experiment: Agonist activity at human cloned delta opioid receptor expressed in CHO cells assessed as stimulation of [35S]-GTP[gammaS] binding. The format is functional, cell-based.

Peptide text beside a SMILES is read from it. Bounds are passed on as bounds.

T4 sequence (P97266 whole entry): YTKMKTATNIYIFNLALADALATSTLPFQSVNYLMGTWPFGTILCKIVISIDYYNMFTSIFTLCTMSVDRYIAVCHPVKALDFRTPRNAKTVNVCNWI
T3 sequence (P41143 whole entry): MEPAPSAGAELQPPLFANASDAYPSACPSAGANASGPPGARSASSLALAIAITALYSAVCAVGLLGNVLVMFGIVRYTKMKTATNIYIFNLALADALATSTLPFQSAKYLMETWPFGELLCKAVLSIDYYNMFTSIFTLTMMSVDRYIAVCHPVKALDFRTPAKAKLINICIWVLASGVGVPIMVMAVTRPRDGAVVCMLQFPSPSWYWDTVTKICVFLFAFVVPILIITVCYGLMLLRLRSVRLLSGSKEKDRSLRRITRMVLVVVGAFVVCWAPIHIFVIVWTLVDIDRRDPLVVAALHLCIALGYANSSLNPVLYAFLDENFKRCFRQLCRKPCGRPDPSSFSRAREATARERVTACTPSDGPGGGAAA
T2 sequence (P41145 whole entry): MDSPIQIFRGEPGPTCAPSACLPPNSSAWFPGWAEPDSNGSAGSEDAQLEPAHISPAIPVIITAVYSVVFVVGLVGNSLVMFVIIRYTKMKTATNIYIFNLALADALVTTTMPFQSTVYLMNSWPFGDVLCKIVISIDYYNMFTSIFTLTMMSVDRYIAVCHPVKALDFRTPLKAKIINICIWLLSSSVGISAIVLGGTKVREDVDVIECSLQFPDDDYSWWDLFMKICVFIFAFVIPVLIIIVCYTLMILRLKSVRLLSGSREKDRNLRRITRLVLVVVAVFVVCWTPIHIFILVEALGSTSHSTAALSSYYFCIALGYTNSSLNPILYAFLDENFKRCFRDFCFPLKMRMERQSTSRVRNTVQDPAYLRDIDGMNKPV
T1 sequence (P35372 whole entry): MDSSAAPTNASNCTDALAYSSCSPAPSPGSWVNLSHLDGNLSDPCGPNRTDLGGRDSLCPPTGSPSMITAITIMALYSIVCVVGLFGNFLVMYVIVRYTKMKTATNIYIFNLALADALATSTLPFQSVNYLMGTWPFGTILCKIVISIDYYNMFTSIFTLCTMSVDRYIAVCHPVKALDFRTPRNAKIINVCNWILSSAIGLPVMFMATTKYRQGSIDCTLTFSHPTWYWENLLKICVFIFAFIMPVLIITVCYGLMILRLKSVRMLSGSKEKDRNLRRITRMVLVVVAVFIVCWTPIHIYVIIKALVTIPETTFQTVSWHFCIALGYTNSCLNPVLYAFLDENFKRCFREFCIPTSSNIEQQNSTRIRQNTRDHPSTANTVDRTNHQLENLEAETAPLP
Kappa-type opioid receptor (Cavia porcellus, UniProt P41144), sequence (P41144 whole entry): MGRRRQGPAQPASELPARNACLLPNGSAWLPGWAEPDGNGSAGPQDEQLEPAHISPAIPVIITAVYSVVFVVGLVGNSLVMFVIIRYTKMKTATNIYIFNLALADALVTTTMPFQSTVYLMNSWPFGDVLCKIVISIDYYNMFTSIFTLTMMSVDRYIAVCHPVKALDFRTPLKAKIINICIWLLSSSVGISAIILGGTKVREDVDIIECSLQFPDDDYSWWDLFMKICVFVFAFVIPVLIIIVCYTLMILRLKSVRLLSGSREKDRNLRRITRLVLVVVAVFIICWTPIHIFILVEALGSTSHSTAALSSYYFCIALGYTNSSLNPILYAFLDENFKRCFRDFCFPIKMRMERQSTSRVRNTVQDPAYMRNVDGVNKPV

Turning to `CC(=O)N1Cc2cc(O)ccc2C[C@@H]1C(=O)N[C@H](CN1CC[C@@](C)(c2cccc(O)c2)[C@@H](C)C1)C(C)C`, the Ke in series [1] is over 300 nM.

Regarding `O=C1N[C@@H](Cc2ccccc2)C(=O)N2CCC[C@H]2C(=O)N[C@@H](Cc2ccccc2)C(=O)N[C@H]1Cc1c[nH]c2ccccc12` (cyclo(FPFW)), the Kb in series [2] was determined as 10.2 nM; in series [3], 65.2 nM. For the same compound, in series [4], the Time is over 24 h.

As to `C[C@@H]1NC(=O)[C@@H]2CCCN2C(=O)[C@H](Cc2ccccc2)NC(=O)[C@H](Cc2c[nH]c3ccccc23)NC1=O` (cyclo(AWFP)), the Time in [4] was under 18 h.

What is called IC50 is the concentration needed to halve the response being measured. Low readings indicate inhibition by little substance, high ones a need for much substance. Take `Cc1ccnc2c1n1cccc1c(=O)n2CC(=O)NCCCN1CCN(c2ccc(Cl)cc2)CC1`: the values for the IC50 in [5], in series [6] and in series [7] were over 32000 nM, 690 nM and over 32000 nM, respectively.

By Ki is commonly meant the dissociation constant of the complex between target and ligand, obtained from inhibition or displacement. As for `C[C@H]1CN(CCOC(=O)[C@H]2Cc3ccc(O)cc3CN2)CC[C@@]1(C)c1cccc(O)c1`, the Ki in [8] amounted to 159 nM; in series [9], 186 nM; in series [10], 475 nM. In addition, the Kb in series [11] was 135 nM; in series [12], 97.7 nM.

For the compound `CC(C)[C@@H](CN1CC[C@@](C)(c2cccc(O)c2)[C@@H](C)C1)NC(=O)[C@@H]1Cc2ccc(O)cc2CN1`, in [1], the Ke came out at 327 nM.

Take `CC(C)[C@@H](CN1CC[C@@](C)(c2cccc(O)c2)[C@@H](C)C1)NC(=O)CCc1ccc(O)cc1`: in [1], the Ke was 450 nM.

In general, AUC refers to the area under the concentration-time curve, a measure of exposure. Read a low AUC as less exposure. By Cmax is commonly meant the highest concentration seen after dosing. Usually Tmax stands for the time from dosing to the highest level. By half-life is commonly meant how long it takes for the measured level to halve. A high value points to slow loss. Broadly, the clearance is a measure of how efficiently the substance is removed, as volume per time. One may read the bioavailability as the share of a dose that reaches the circulation, judged against a reference dose that is usually intravenous. High values mean much systemic uptake, low ones little systemic uptake. What is called ED50 is the dose at which the effect has come halfway, by size or by number of responders. Turning to `Cc1cc(C)cc([C@@H]2CCCN2Cc2ccc(Oc3ccc(C(N)=O)cc3F)cc2)c1` [ATICAPRANT], the AUC in series [13] was found to be 186 ng·h/mL; in series [18], 466 ng·h/mL. Also, the Cmax in [14] came to 334 ng/mL; in series [19] it was 95 ng/mL. For the same compound, the time of peak concentration (Tmax) in series [15] was 0 h; in [20], 2 h. The half-life in [16] is 1.8 h; in series [21], 3.8 h. The same compound yielded a clearance in series [17] of 89.3 mL/min/kg. Moreover, the bioavailability in series [22] stood at 25.4%. For the same compound, the ED50 in [23] was determined as 0.4 mg/kg. Also, the Ratio in [24] amounted to 43.

In general, EC50 refers to the concentration at which the effect is half-maximal. For the compound `CO[C@H]1Cc2ccc(O)cc2C(C)(C)[C@@H]1N`, in series [25], the Activity came out at 31.6% and the EC50 was determined as 234 nM.

Take `COc1ccc(N2CCN(CCCNC(=O)Cn3c(=O)c4cccn4c4cccnc43)CC2)cc1`: the IC50 in series [5] is over 32000 nM; in series [6] it was 1950 nM; in [26], 1300 nM; in series [7] it was over 32000 nM.

On to `COc1ccc(N2CCN(CCCNC(=O)Cn3c(=O)c4cccn4c4ccccc43)CC2)cc1`, for which the IC50 in [5] and in series [7] was over 32000 nM in each case.

In the case of `CC(C)[C@@H](CN1CC[C@@](C)(c2cccc(O)c2)[C@@H](C)C1)NC(=O)[C@H]1Cc2ccc(O)cc2CN1` [JDTIC], the Ki in [27] was 2.16 nM; in [28], over 300 nM.

In the case of `CC1CN(CCCc2ccccc2)C2C[C@H](N)CC1(c1cccc(O)c1)C2` (some centres not stated), the Ke in series [29] was 10.1 nM. In addition, the EC50 was over 5000 nM in series [30], 19500 nM in series [25] and 7500 nM in [31].

Turning to `CCOC(=O)C(CN1CC[C@@](C)(c2cccc(O)c2)[C@@H](C)C1)OC(=O)[C@H]1Cc2ccc(O)cc2CN1` (some centres not stated), the Ki in [8] amounted to 1.72 nM; in series [9], 26.5 nM; in series [10], 1060 nM. Moreover, the Kb in [11] was 2.4 nM; in series [12] it was under 5010 nM.

For the compound `CCN(CCNC(=O)c1ccc(CNS(=O)(=O)c2ccc(C)cc2)cc1)Cc1ccccc1`, the IC50 in [7] was over 32000 nM.
